The text below walks through data of patent US20210147812A1, “Method of Preparing Cancer Spheroid and Method of Selecting Colorectal Cancer Patient” (Kyo Diagnostics K.K., priority 2017, published 2021).

Read-outs that look alike come from different tables or passages of the source.

In series [1] the test system is three luciferase-expressing CRC-TIC spheroid lines (HC21T, HC18T, HC25T). Kind of series: Chemical library screening of 80 agonists or activators for growth-promoting effects. The class given is cell-based. To be noted: Homo sapiens, read-out: stimulation of spheroid growth. As for the experimental part:
For growth monitoring assays, luciferase-expressing spheroids were cultured in 2-3 wells of a 12-well cell-culture plate. […] The spheroid cells were resuspended in Matrigel, distributed to the wells of 96-well “white” cell-culture plates (Corning; 3 μl per well) on a plate heater at 37° C., and cultured overnight in 100 μl/well of the medium. Spheroids were rinsed with 100 μl/well of PBS, and incubated with 50 μl of 150 μg/ml luciferin in phenol red-free DMEM/F12 medium (Nacalai) for 10 min at room temperature […]. Luminescence was scored using a conventional imaging device (Gel Doc XR+, BioRad). After this initial measurement, spheroids in each well were rinsed with 100 μl of PBS, and cultured in 100 μl of the medium. Luminescence was determined daily or 3 days later. The cell growth rate for each well was estimated as the proportion of photon counts to those on day 1.

For series [2], the system named is spheroid lines HC6T, HC9T, and HC20T. Briefly: Drug sensitivity tests in spheroids (GEI). The class given is cell-based, human. To be noted: dose-dependent, FIGS. 16A-16C. As for the experimental part:
(§1) Luciferase-expressing spheroids were cultured in 2-3 wells of a 12-well cell-culture plate (in 60-90 μl Matrigel). […] From the spheroid solution thus obtained, 300 μl was taken and the cells were resuspended in an equal volume of Matrigel. The spheroid cells in Matrigel were distributed to the wells of 96-well “white” cell-culture plates (Corning; 3 μl per well) on a plate heater at 37° C., and cultured overnight in 100 μl/well of the medium. Spheroids were rinsed with 100 μl/well of PBS, and incubated with 50 μl of 150 μg/ml luciferin in phenol red-free DMEM/F12 medium (Nacalai) for 10 min at room temperature (20-28° C.). Luminescence was scored using a conventional imaging device (Gel Doc XR+, BioRad). After this initial measurement, spheroids in each well were rinsed with 100 μl of PBS, and cultured in 100 μl of the medium. Luminescence was determined on day 1 and day 3. Effects of a drug was determined by obtaining GEI (growth effect index), which is the growth rate of a group treated with the drug compared to a control group (a solvent-treated group). Results were shown using means in three independent experiments each conducted in triplicate.
The spheroid lines shown in Table 3 were used in this example.

For series [3], the system named is two CRC-TIC spheroid lines (HC18T and HC21T). Briefly: Titration experiments, dose-dependent effects on growth (GEI). To be noted: for effect on spheroid growth in titration: at 10 μM. The class given is cell-based, human. As for the experimental part:
Shown are the plots and means of GEI in three independent experiments. Asterisks indicate significant differences from the solvent-only group (P<0.05; analyzed using one-way ANOVA followed by Tukey's post-test).
Shown are the mean GEI±SEM (independent experiments, n=3). Asterisks indicate significant differences from the solvent-only (0 μM) group (P<0.05; analyzed using one-way ANOVA followed by Tukey's post-test).
(§2) Luminescence was determined daily or 3 days later. The cell growth rate for each well was estimated as the proportion of photon counts to those on day 1. Four or six replicates (with similar statistical power) were analyzed for each data point in all experiments except for the chemical compound screening assays.

Series [4] concerns CRC spheroids (HC18T, HC21T, and HC52T). Kind of series: Morphology of spheroids after treatment with cAMP-signaling activators (phase-contrast micrographs). The class given is cell-based, human. The following applies: 10 μM CV1808, 1 μM NECA, or 1 μM forskolin for five days.
The test system of the next series is HC21T spheroid line. Kind of series: Titration experiment, growth promotion (GEI). The class given is cell-based, human. As for the experimental part:
as §2

Series [5] deals with eleven CRC-TIC spheroid lines and four normal spheroid lines. Briefly: Dose-dependent effects of SB431542 on the growth of spheroid lines (GEI). It is filed as cell-based, human. As for the experimental part: Luciferase-expressing cancer and normal spheroids were cultured in the cancer medium and the eL-WRN medium each containing EGF and bFGF, respectively, in the presence of SB431542 at the indicated concentrations. Tested were eleven CRC-TIC spheroid lines (circle) and four normal spheroid lines (square). Shown are the mean GEI of four replicates.
as §2

Series [6] relates to normal colonic epithelial stem cell spheroids. Kind of series: Drug sensitivity tests in spheroids (GEI). It is filed as cell-based, human. The following applies: concentrations below 1 μM. As for the experimental part:
as §1

The test system of the next series is HC6T-PDSX mice. Kind of series: Drug sensitivity tests in PDSX models (tumor volume). It is filed as in vivo, nude mice (BALB/c-nu). To be noted: 21 days; erdafitinib 10 mg/kg orally, cetuximab 250 μg i.p. twice a week. As for the experimental part:
Patient-derived spheroids were cultured in a 12-well culture plate to become confluent (4×10^5-4×10^6 cells/plate) and the spheroids were rinsed twice with PBS and placed in a 1.5 ml tube with Matrigel. The volume of the spheroid suspension was adjusted to 100 μl with PBS and the suspension thus obtained was subcutaneously injected into 4-6 week female nude mice (BALB/c-nu) at 1×10^5-9×10^5 cells/mouse.
PDSX mice were subjected to drug-dosing test when the mean estimated tumor volume reached 300 mm^3. Tumor volume (mm^3) was estimated by the following formula: length×width^2/2. We excluded the following kinds of tumors from the tests as outliers; too small (<100 mm^3), spontaneously shrinking, remaining unchanged in size, or deeply implanted and difficult to be measured.
The day of the dosing start was defined as day 0, with the tumor volume of each mouse measured twice a week for 3 weeks (days 0-21).
The relative tumor volume was estimated by calibration to the initial tumor volume on day 0. To evaluate the drug dosing effects, the ratio of tumor volume on day 21 to that on day 0 was compared among the four groups.

In series [7] the test system is HC6T-PDSX and HC20T-PDSX tumors. Kind of series: Histological examinations of PDSX tumors at day 21 (H&E, Ki67). It is filed as in vivo, nude mice (BALB/c-nu). The following applies: erdafitinib monotherapy group. As for the experimental part: Paraffin-embedded tissues of PDSXs were prepared according to the standard procedures. Sections were stained with H&E or immunostained for Ki67.

Series [8] relates to CRC-TIC spheroid lines that carried wild-type RAS/RAF genes (HC6T, HC9T, HC11T, HC21T). Briefly: Stimulation of spheroid growth with EGF and/or bFGF, luminescence-based growth monitoring (GEI). It is filed as cell-based, human. The following applies: HC6T, HC9T. As for the experimental part: as §2
To investigate whether EGF and bFGF helped spheroid proliferation in the cancer medium as described above, we cultured with EGF and/or bFGF four slow-growing CRC-TIC spheroid lines that carried wild-type RAS/RAF genes (HC6T, HC9T, HC11T, HC21T). Because EGF/bFGF facilitated the growths of these spheroid lines substantially (FIG. 3A), we then quantified their effects by the luminescence-based growth monitoring. To calibrate the effects, we introduced the growth effect index (GEI) defined as the relative growth rate of a treated group to that of its solvent-only control in each paired assay. […] The extents of growth promotion by EGF and bFGF were different depending on the spheroid line. […] In another spheroid line (HC21T), the effects were similar between the two growth factors (FIG. 3B).

Regarding `CCCCCCCCc1ccc(-c2ccc(C(=O)O)cc2)cc1` [AC55649, 4′-Octyl-[1,1′-biphenyl]-4-carboxylic acid], the activation at 10 µM in [1] (10 μM each) is > 25%.

With `CCN1CCN(c2ccc(Nc3cc(N(C)C(=O)Nc4c(Cl)c(OC)cc(OC)c4Cl)ncn3)cc2)CC1` [BGJ398], the “growth of spheroid lines (GEI)” value in [2] is “suppressed the growth”.

For `C=CC(=O)N[C@H]1CCOC[C@H]1Nc1ncc2cc(-c3c(Cl)c(OC)cc(OC)c3Cl)ccc2n1` [BLU554], the “growth of spheroid lines (GEI)” value in [2] is “suppressed the growth”.

Regarding `Nc1nc(Nc2ccccc2)nc2c1ncn2[C@@H]1O[C@H](CO)[C@@H](O)[C@H]1O` [CV1808, 2-phenylaminoadenosine], the activation at 10 µM in series [1] (10 μM each) is > 25%. Moreover, the “growth-promoting effect compared with NECA” value in series [3] (dose-dependent, FIG. 9A) is on record as “growth-promoting effect though weaker than that of NECA”. Besides, the “morphological changes in spheroids” value in [4] is “cell flattening and increased sphere size”.

As to `CCn1c(=O)[nH]c2cc(Cl)c(Cl)cc21` [DCEBIO, 5,6-Dichloro-1-ethyl-1,3-dihydro-2H-benzimidazol-2-one], the activation at 10 µM in series [1] (10 μM each) is > 25%.

For `Cc1cc(SCc2sc(-c3ccc(C(F)(F)F)c(F)c3)nc2C)ccc1OCC(=O)O` [GW0742, [4-[[[2-[3-fluoro-4-(trifluoromethyl)phenyl]-4-methyl-5-thiazolyl]methyl]thio]-2-methylphenoxy]-acetic acid], the activation at 10 µM in series [1] was > 25%. Moreover, the “effect on spheroid growth in titration” value in [3] was “significant effects”.

`CC(C)(Sc1ccc(CCN(CCCCC2CCCCC2)C(=O)NC2CCCCC2)cc1)C(=O)O` [GW7647, 2-methyl-2-[[4-[2-[[(cyclohexylamino)carbonyl](4-cyclohexylbutyl)amino]ethyl]phenyl]thio]-propanoic acid]: the activation at 10 µM in [1] (10 μM each) is > 25%.

In the case of `CCCc1c(OCCCOc2ccc(OCC(=O)O)cc2)ccc(C(C)=O)c1O` [L-165,041, [4-[3-(4-Acetyl-3-hydroxy-2-propylphenoxy)propoxy]phenoxy]acetic acid], the activation at 10 µM in series [1] (10 μM each) was > 25%.

As to `CCNC(=O)[C@H]1O[C@@H](n2cnc3c(N)ncnc32)[C@H](O)[C@@H]1O` [NECA, 5′-(N-ethyl-carboxamido)-adenosine], the 50% effective concentration (EC50) – broadly, the concentration needed to bring the measured effect to its halfway point – in the series with HC21T spheroid line is 195 nM. Moreover, in series [4], the “morphological changes in spheroids” value is “cell flattening and increased sphere size”.

Regarding `CN[C@H](CC(=O)O)C(=O)O` [NMDA, N-Methyl-D-aspartic acid], in [1], the activation at 10 µM was > 25%.

Take `NC(=O)c1ccc(-c2nc(-c3ccc4c(c3)OCO4)c(-c3ccccn3)[nH]2)cc1` [SB431542, 4-[4-(1,3-benzodioxol-5-yl)-5-(2-pyridinyl)-1H-imidazol-2-yl]benzamide]: the “effect on spheroid growth” value in [5] (at 10 μM) was “growth inhibition”. Further, the “effect on cancer versus normal spheroids” value in series [5] (indicated concentrations, FIG. 7A) is “effects on cancer spheroids were less than those on normal spheroids”.

In the case of `Nc1nc2c(ccc3ccccc32)s1` [SKA-31, Naphtho[1,2-d]thiazol-2-ylamine], the activation at 10 µM in series [1] (10 μM each) was > 25%. Moreover, the “effect on spheroid growth in titration” value in [3] was “significant effects”.

In the case of `COC(=O)C(Cc1ccc(OCCn2c(=O)sc3cc(C(=O)c4ccccc4)ccc32)cc1)C(=O)OC` [compound 526948, [[4-[2-(6-Benzoyl-2-oxo-3(2H)-benzothiazolyl)ethoxy]phenyl]methyl]-1,3-propanedioic acid dimethyl ester], the activation at 10 µM in series [1] (10 μM each) was > 25%.

Regarding `COc1cc(OC)cc(N(CCNC(C)C)c2ccc3ncc(-c4cnn(C)c4)nc3c2)c1` [erdafitinib], the “growth of spheroid lines (GEI)” value in [2] is listed as “suppressed the growth”. The “growth of normal spheroids” value in series [6] is reported as “hardly suppressed the growth”. Besides, the “tumor volume versus control” value in the series on HC6T-PDSX mice is on record as “reduced the tumor volume”. Besides, the “tumors that disappeared (complete response)” value in series [7] is listed as “One of three”.

Turning to `COCc1c(-c2cc3cc(C)cc(OC)c3s2)c2c(N)ncnn2c1CN1CCNC(=O)C1` [rogoratinib], the “growth of spheroid lines (GEI)” value in series [2] is listed as “suppressed the growth”.

In the case of AZD4547, the “growth of spheroid lines (GEI)” value in series [2] is “suppressed the growth”.

As to “bFGF: basic fibroblast growth factor, recombinant human protein”, the “extent of growth promotion, bFGF versus EGF” value in [8] is listed as “more effective than EGF”.
